Data set [1] concerns cancerous and tumorous cells. Kind of data set: tests of carcinostatic effect (several tests including a biological test). To be noted: high dose sometimes leads to less effect than a low dose. From the text:
The present invention relates to carcinostatic compounds and compositions and a process for producing the same chiefly containing 5-fluorouracil derivatives (hereinafter referred to as 5-FU). 5-FU and its various derivatives are known to act as carcinostatic agents which disrupt cancerous cells or depress the multiplication thereof. […] That is to say, in spite of the fact that a remarkable carcinostatic effect was achnowledged using a low dose, a high dose sometimes leads to less carcinostatic effects than a low dose. […] In general, it can be easily presumed that these acylated 5-FU compounds, having the substituent group of NH, are to be obtained in acylation with the reagents represented by the general formula such as RCOX, wherein R represents an acyl group and X is halogen and (RCO)2 O, wherein R is an acyl group. However, 3-N-acyl-5-FU cannot be obtained directly from 5-FU because the acylation will preferably occur at the 1-position of 5-FU when 5-FU is reacted with the reagents under normal conditions. […]
In addition, the composition has many other advantageous features, e.g., only a low dose is necessary to be effective so that harmful side-effects are avoided as regards the normal cells. […] Furthermore, it is believed that the 5-FU ring is readily incorporated into RNA as a substituent for uracil. […]

For a further data set, the system named is Leiomyosarcoma cells. Kind of data set: growth inhibition of leiomyosarcoma cells in culture (Example 8). In kind it is cell-based, human. The following applies: for IC50 / MIC: Homo sapiens, 72 h; for IC50: dose per unit volume effective for 50% of the cells, read-out: ED50 (the source's name). The source says:
(§1) Included in Tables 5 through 7 for comparison are carcinostatic effect of 3-N-o-toluyl-5-FU on various kinds of cancerous cells. In these tables, MIC represents minimum inhibitory concentration (γ or microgram/ml) required to inhibit the growth of cancerous cells in a culture medium and ED50 (γ or microgram/ml) represents the dose per unit volume effective for 50% of the cells.
(3) Leiomyosarcoma cells of human.
(§2) Each kind of said cancerous cells, having an initial number of 3×10^4 and 4×10^4 was cultured in a nutrient medium on a slide glass in a flat bottle for 24 hours to make more than one sample, respectively; half for 5-FU and the other for 3-N-o-toluyl-5-FU in oil emulsion. Then 5-FU diluted with water of different concentrations and 3-N-o-toluyl-5-FU in oil emulsion of different concentrations was respectively added to the cells of each of said plate to make several different concentrations of said compounds per unit volume of each cell, and the culture was continued for three days. The manner of the action of each of said compounds against each of the cells at different concentrations (weight per unit volume of cell) was observed by an inverted phase contrast microscope with the passage of time, as well as the multiplication and the change in morphology of the cells were examined by fixing and staining the cells on the slide glass after a period of three days. As a nutrient medium, MEM S10 or HAM-F S10 was employed. HAM-F S10 is a 10% serum supplemented medium described by Richard G. Ham in 1964, and is sold under the tradename "HAM F12 Nissui" in Japan.
(§3) The molecular weight of 5-FU is about 130 and that of 3-N-o-toluyl-5-FU is about 248. […] Accordingly, as used in the following explanations, the terms "weight concentration" refers to the γgm/ml of each compound used in a given test, and the term "molarity" generally refers to the number of molecules of each compound present in a given amount used in a test.

Another data set deals with Ehrich cancerous cells. Nature of the data set: growth inhibition of Ehrich cancerous cells in culture (Example 6). In kind it is cell-based, mouse. The following applies: for MIC / IC50: Mus musculus, 72 h; for IC50: Ehrlich, dose per unit volume effective for 50% of the cells, read-out: ED50 (the source's name). As to the method:
Cancerous cells employed:
(1) Ehrich cancerous cells of mouse;
Each kind of said cancerous cells, having an initial number of 3×10^4 and 4×10^4 was cultured in a nutrient medium on a slide glass in a flat bottle for 24 hours to make more than one sample, respectively; half for 5-FU and the other for 3-N-o-toluyl-5-FU in oil emulsion. Then 5-FU diluted with water of different concentrations and 3-N-o-toluyl-5-FU in oil emulsion of different concentrations was respectively added to the cells of each of said plate to make several different concentrations of said compounds per unit volume of each cell, and the culture was continued for three days. […] As a nutrient medium, MEM S10 or HAM-F S10 was employed.

For the next data set, the system named is Sarcoma 180. Kind of data set: Carcinostatic effect against Sarcoma 180 of a mouse, and toxicity (Example 5). The format is in vivo. To be noted: for toxicity: general debility, decrease in weight and napping; for ratio of tumor in wt.: seven days, Control 1.00. As to the method:
Mice were separated into 7 groups of 10 mice. Sarcoma 180, having an initial cell number of 5×10^5, was innoculated hypodermically into each subject. After 24 hours, each composition was given to the subject mouse, except the Control, at the dose as shown in Table 3 for seven (7) consecutive days. On the tenth day from the initial innoculation, each subject was anatomized to examine the tumor weight, the average of which was then compared with that of the Control. Toxicity was also interpreted in view of general debility, decrease in weight and napping. In this test, 3-N-o-toluyl-5-FU was administered orally in the form of powder mixed with water, which was isolated by chromatography from that in oil emulsion.

Data set [2] deals with human thyroid cancer cells. Kind of data set: growth inhibition of human thyroid cancerous cells in culture (Example 7). The format is cell-based. The following applies: for IC50 / MIC: Homo sapiens, 72 h; for IC50: dose per unit volume effective for 50% of the cells, read-out: ED50 (the source's name).
Description: as §1
(2) Human thyroid cancerous cells; and
as §2, §3

The nature of data set [3]: side-effects on normal cells, mouse foot pad cells (Example 9). The following applies: mouse, foot pad cells; for cytotoxicity: MIC for Ehlrich cancerous cells versus ED50 for normal cells, read-out: normal cells damaged at the minimum dose inhibiting multiplication of the cancerous cells; for CC50 at 72 h: Table 8, normal cells, procedures of Examples 6-8, read-out: ED50. The format is cell-based. The procedure:
as §2
(§4) Using the same procedures as in Examples 6-8, it was investigated whether the compound of the invention causes side-effects on normal cells.
(§5) ED50 for normal cells mean that this dose will inhibit the normal propagation of 50% of unattacked cells (that is, it may cause a harmful influence upon normal cells), while MIC for cancerous cells means that this dose will inhibit the multiplication of 100% of cancerous cells. Consequently when MIC of a compound for cancerous cells exceeds ED50 of the same for normal cells, it is considered that this compound must have side-effects.

The next data set relates to mouse foot pad cells. The data set is described as above. In kind it is cell-based. The following applies: for MIC: Mus musculus, 72 h, Table 8, normal cells, procedures of Examples 6-8. As to the method:
as §2, §4, §5

Data set [4] deals with AH 130 (tumor cells of liver cancer of a rat). Nature of the data set: Carcinostatic effect against AH 130 (tumor cells of liver cancer of a rat), and toxicity (Example 5). The format is in vivo. To be noted: for ratio of tumor in wt.: seven days, Control 1.00. As to the method:
To further show the advantageous effects of 3-N-o-toluyl-5-FU of the present invention over related compounds known in the art, such as FT-207 and 5-FU, tests were conducted in accordance with the procedures as described below and the results are presented in Tables 3 and 4.
Rats were separated into 7 groups of 10 rats. AH 130, having an initial cell number of 5×10^5, was injected hypodermically into each subject and, after 24 hours, each composition was given to each subject rat at the dose shown in Table 4 for seven (7) consecutive days. On the 10th day from the initial innoculation, each subject was anatomized to examine the tumor weight, the average of which was compared with that of the non-treated Control. In this test, 3-N-o-toluyl-5-FU was also administered orally in the form of powder as in the former test.

[5] abbreviates: Table 7, minimum inhibitory concentration, three days, read-out: MIC.
Setting [6] is: Example 9, read-out: MIC for Ehrich cancerous cells.
The mark [7] stands for this setting: Table 5, minimum inhibitory concentration, three days, read-out: MIC.
Where [8] appears, read: 100 mg/kg daily, total 700 mg/kg.
The mark [9] stands for this setting: Tables 3 and 4 (Sarcoma 180 mice and AH 130 rats).
Setting [10] is: Table 6, minimum inhibitory concentration, three days, read-out: MIC.
Where [11] appears, read: 30 mg/kg daily, total 210 mg/kg.
[12] abbreviates: 200 mg/kg daily, total 1400 mg/kg.
[13] abbreviates: 90 mg/kg daily, total 630 mg/kg.

The record followed here is patent publication US4196202A, “Carcinostatic composition containing 3-N-o-toluyl-5-fluorouracil producing the same” (priority 1977, dated 1980).

In brackets after ≈: the same amount, converted by molar mass. Read-outs that look alike come from different tables or passages of the source.

Turning to `Cc1ccccc1C(=O)n1cc(F)c(=O)n(C(=O)c2ccccc2C)c1=O` [1,3-di-N-o-toluyl-5-FU], the “carcinostatic effect, stability of the effect” value in data set [1] is “extremely unstable”.

For `Cc1ccccc1C(=O)n1c(=O)[nH]cc(F)c1=O` [3-N-o-toluyl-5-FU, 3-N-o-toluyl-5-fluorouracil], the IC50 with Leiomyosarcoma cells (Table 7, three days) is 0.3 µg/mL (≈ 1.21 µM); in the data set with Ehrich cancerous cells (Table 5, three days), 1 µg/mL (≈ 4.03 µM); in data set [2] (Table 6, three days) it was 0.6 µg/mL (≈ 2.42 µM). The MIC was 1.25 µg/mL (≈ 5.04 µM) in the data set on Leiomyosarcoma cells (setting [5]); 2 µg/mL (≈ 8.06 µM) in the data set with Ehrich cancerous cells (setting [6]); 2 µg/mL (≈ 8.06 µM) with Ehrich cancerous cells (setting [7]); 1.25 µg/mL (≈ 5.04 µM) in data set [2] (setting [10]); 10 µg/mL (≈ 40.3 µM) with mouse foot pad cells. Further, the “carcinostatic efficacy compared with 5-FU” value with Leiomyosarcoma cells (weight concentration, Table 7) was “considerably superior to 5-FU”. For the same compound, in the data set on Ehrich cancerous cells (number of molecules as reference standard), the “number of molecules for ED50 relative to 5-FU” value is “half that of 5-FU”. The “MIC compared with 5-FU” value against Ehrich cancerous cells (weight concentration and molarity) was “apparently superior to 5-FU in both weight concentration and molarity”. Besides, the toxicity entry with Sarcoma 180 (50 mg/kg daily, total 350 mg/kg) is on record as “-”; in the data set on Sarcoma 180 (setting [8]) it was “-”; in data set [4] (setting [11]), “-”; in data set [4] (setting [8]), “-”. In addition, the “ratio of tumor in wt.” value in the data set with Sarcoma 180 (50 mg/kg daily, total 350 mg/kg, oral powder mixed with water) is reported as 0.550; in the data set with Sarcoma 180 (setting [8]) it was 0.367; in data set [4] (setting [11]), 0.84; in data set [4] (100 mg/kg daily, total 700 mg/kg, oral powder), 0.35. Moreover, the “toxic side-effects with increasing amount administered” value in the data set on Sarcoma 180 (setting [9]) was “does not produce toxic side-effects”. Besides, the “dose in weight concentration for carcinostatic effects, compared with 5-FU” value in data set [2] (Table 6) is listed as “less than half the dose in weight concentration than that of 5-FU”. Also, the cytotoxicity in data set [3] was less than 50%. Besides, in data set [3], the CC50 at 72 h was determined as 2.5 µg/mL (≈ 10.1 µM). In addition, in the data set with mouse foot pad cells (MIC for Ehrich cancerous cells versus ED50 for normal cells), the “side-effects compared with 5-FU” value was “less side-effects than 5-FU”.

Take `O=c1[nH]cc(F)c(=O)[nH]1` [5-FU, 5-fluorouracil]: the IC50 with Leiomyosarcoma cells (Table 7, three days) came to 1.25 µg/mL (≈ 9.61 µM); in the data set on Ehrich cancerous cells (Table 5, three days), 1 µg/mL (≈ 7.69 µM); in data set [2] (Table 6, three days) it was 1.25 µg/mL (≈ 9.61 µM). Besides, the MIC with Leiomyosarcoma cells (setting [5]) is 2.5 µg/mL (≈ 19.2 µM); with Leiomyosarcoma cells (Table 9, read-out: MIC (leiomysarcoma)) it was 2.5 µg/mL (≈ 19.2 µM); in the data set on Ehrich cancerous cells (setting [6]), 2.5 µg/mL (≈ 19.2 µM); in the data set on Ehrich cancerous cells (setting [7]), 2.5 µg/mL (≈ 19.2 µM); in the data set on Ehrich cancerous cells (Table 9 and text, read-out: MIC (Elrich cancerous cells)), 2.5 µg/mL (≈ 19.2 µM); in data set [2] (setting [10]), 2.5 µg/mL (≈ 19.2 µM). For the same compound, the MIC came out at 2.5 µg/mL (≈ 19.2 µM) in data set [2] (Table 9, read-out: MIC (human thyroid cancerous cells)) and 10 µg/mL (≈ 76.9 µM) against mouse foot pad cells. Also, the toxicity entry is given as “-” with Sarcoma 180 (10 mg/kg daily, total 70 mg/kg); “+” with Sarcoma 180 (setting [11]); “-” in data set [4] (10 mg/kg daily, total 70 mg/kg); “+” in data set [4] (setting [11]). Further, the “ratio of tumor in wt.” value with Sarcoma 180 (10 mg/kg daily, total 70 mg/kg) was 0.840; in the data set on Sarcoma 180 (setting [11]), 0.540; in data set [4] (10 mg/kg daily, total 70 mg/kg) it was 0.72; in data set [4] (setting [11]), 0.55. The “toxic side-effects with increasing amount administered” value in the data set with Sarcoma 180 (setting [9]) was “increasing the amount of the compound administered produces toxic results”. In addition, in data set [3], the cytotoxicity stood at 50%. Besides, in data set [3], the CC50 at 72 h came out at 2.5 µg/mL (≈ 19.2 µM).

Regarding `O=c1[nH]c(=O)n(C2CCCO2)cc1F` (centres unmarked) [FT-207], the toxicity result in the data set with Sarcoma 180 (setting [8]) was “-”; in the data set with Sarcoma 180 (setting [12]) it was “+”; in data set [4] (setting [13]), “-”; in data set [4] (setting [12]) it was “+”. In addition, the “ratio of tumor in wt.” value in the data set on Sarcoma 180 (setting [8]) turned out to be 0.516; in the data set on Sarcoma 180 (setting [12]), 0.418; in data set [4] (setting [13]) it was 0.60; in data set [4] (setting [12]), 0.35. Also, the “toxic side-effects with increasing amount administered” value with Sarcoma 180 (mouse, in vivo) is reported as “increasing the amount of the compound administered produces toxic results”.
